Experimental data published in article PMC11641365, “Evaluation of In Vitro Biological Activity of Flavanone/Chromanone Derivatives: Molecular Analysis of Anticancer Mechanisms in Colorectal Cancer” (International Journal of Molecular Sciences, 2024).

Tests used:
Assay type in all cases: cell-based, human
[1] = tested on: HCT 116, SW620, LoVo, Caco-2, and HT-29 cancer cell lines; assay: Alkaline comet assay (DNA damage), all cell lines; settings: compound at IC50, 12 h; all five cell lines
Description: Single-cell gel electrophoresis, also known as the comet assay, is a rapid and sensitive method for assessing DNA damage at the single-cell level. Cells are lysed and electrophoresed. Both single-strand and double-strand breaks are detected under alkaline conditions. The released DNA is denatured and moves in the agarose gel toward the anode during electrophoresis. The image, obtained after staining with the fluorescent dye 4′,6-diamidino-2-phenylindole (DAPI), resembles a “comet” with a distinct “head” (intact DNA) and “tail” (damaged DNA fragments). The length of the tail depends on the number and size of the broken DNA strands.
Cells (1 × 10^3) were seeded in 35 mm dishes and cultured in the medium for 24 h to attain the logarithmic growth phase. […] Subsequently, cells were trypsinized and centrifuged for 10 min at 100× g at 4 °C. A small amount of PBS and a 0.5% solution of low-melting-point agarose (LMP agarose) were added to the obtained cell pellet and placed on a glass slide covered with two layers of normal-melting-point agarose (NMP agarose). The slides were incubated for 24 h in a lysis buffer (2.5 M NaCl, 100 mM, Na2EDTA, 10 mM, Tris, 1% Triton X-100) to release DNA. […] Quantitative analysis of the DNA comet image of preparations stained with DAPI solution (2 μg/L) was performed using a camera connected to a fluorescence microscope. The comet DNA analysis was performed under a Nikon Eclipse fluorescence microscope (Nikon, Tokyo, Japan) equipped with a 4910 COHU video camera (Cohu, Inc., San Diego, CA, USA) and a computer with Lucia-Comet v. […] Each time, from each preparation, 100 randomly selected comets were counted. The extent of DNA damage is quantified by measuring the length of the comet tail and the amount of DNA it contains. The Lucia Comet software calculated the percentage of DNA damage based on measurements of color intensity and comet tail length. The intensity of fluorescence was determined by the software, which calculated a series of parameters characterizing the extent of DNA damage for each cell. […]

SW620 [2] = assay: Mitochondrial membrane potential (ΔΨm), JC-1 probe; settings: compound at IC50, vs control
Description: Changes in mitochondrial potential in cancer cells exposed to the tested derivatives were monitored using the fluorescent probe JC-1. In non-apoptotic cells, JC-1 aggregates emit red-orange fluorescence. During changes in mitochondrial membrane potential, such as those associated with the initiation of PCD stages (both hyperpolarization and depolarization of mitochondrial membranes), JC-1 is converted to monomers, emitting green fluorescence.
5,5,6,6-Tetrachloro-1,1,3,3-tetraethylbenzimidazolylcarbocyanine iodide (JC-1) is one of the most reliable fluorescent probes used to assess changes in mitochondrial membrane potential (ΔΨ). In living cells with intact mitochondrial membranes, the lipophilic, cationic dye JC-1 penetrates the negatively charged mitochondrial matrix as a monomer, where it forms fluorescent aggregates with red-orange fluorescence (λex = 514 nm, λem = 590). […] The fluorescence ratio of aggregates (λem = 590 nm) and monomers (λem = 529 nm)—590 nm/529 nm—reflects the level of damage to the mitochondrial membrane.
Cells were seeded in black 96-well fluorometric microplates at a density of 10 × 10^3 cells/mL. […] Following treatment, the medium was removed, and the cell monolayers were washed twice with HBSS (140 mM NaCl, 5 mM KCl, 0.8 mM MgCl2, 1.8 mM CaCl2, 1 mM Na2HPO4, 10 mM HEPES, and 1% glucose). Then, 50 μL of a JC-1 solution in HBSS was added to each well, and the cells were incubated for 30 min in the dark at 37 °C (final JC-1 concentration 5 μM). After removing the fluorescent dye and replacing it with fresh HBSS, fluorescence measurements were taken using a Perkin-Elmer LS-5B spectrofluorometer (Perkin-Elmer LS-5B spectrofluorometer, Waltham, MA, USA). The excitation and emission wavelengths for JC-1 monomers were 514 nm and 529 nm, respectively, while for aggregates, they were 514 nm and 590 nm. The results were expressed as a percentage change in the fluorescence ratio of JC-1 aggregates to JC-1 monomers compared to the control, which was set at 100%.

SW620 [3] = assay: Intracellular GSH level, monochlorobimane (MCB) probe; settings: compound at IC50, 24 h, vs control
Protocol: (§1) The spectrofluorimetric method with monochlorobimane (MCB; Sigma-Aldrich; St. Louis, MO, USA) was used to determine GSH. Monochlorobimane reacts with glutathione in a reaction catalyzed by cellular glutathione S-transferase. The reaction produces a fluorescent bimane-glutathione conjugate (GSH-MCB). A major advantage of MCB is its ability to penetrate the cell membrane, which is why it is used as a probe to determine the amount of GSH in living cells.
(§2) Cells were seeded in black 96-well fluorometric microplates at a density of 10 × 10^3 cells/mL. […] Following compound incubation, the medium was removed, and the cell monolayers were washed twice with HBSS (140 mM NaCl, 5 mM KCl, 0.8 mM MgCl2, 1.8 mM CaCl2, 1 mM Na2HPO4, 10 mM HEPES, and 1% glucose). A solution of MCB at a final concentration of 40 μM was added to each well and incubated in a CO2 cell culture incubator at 37 °C for 20 min. A 40 mM MCB stock solution was prepared by dissolving 9 mg of the reagent in 1 mL of absolute ethanol. Fluorescence was measured using a Perkin-Elmer LS-5B spectrofluorometer (Waltham, MA, USA) at the following excitation and fluorescence emission wavelengths: λex = 380 nm/λem = 470 nm. After incubation with MCB, the cells were lysed with 50 μL of lysis buffer (10 mM TRIS-HCl; pH 8 containing 0.1% Triton X-100). In order to normalize the number of cells in individual samples, the amount of DNA was determined by adding 50 μL of ethidium bromide (EB, final concentration 0.2 mM) to each well after measuring the MCB fluorescence and measuring the EB fluorescence at an excitation wavelength of λex = 530 nm and an emission wavelength of λem = 590 nm. The results obtained using the standard curve were converted to nM of GSH.

LoVo = assay: as above; settings: compound at IC50, 24 h, vs control
Protocol: as §1, §2

Compound | Genotoxic properties (comet assay) [1] | Increase in mitochondrial membrane potential (hyperpolarization) (SW620 [2]) | Decrease in GSH levels (SW620 [3]) [%] | Decrease in GSH levels (LoVo) | Change in mitochondrial membrane potential ΔΨm (SW620 [2])
O=C1/C(=C/c2ccccc2)COc2ccccc21 [Compound 1] | potent genotoxic properties | approximately 40% | 40 | 30–35% | –
COc1cccc(/C=C2/C(=O)c3ccccc3OC2c2ccccc2)c1 (stereo not drawn) [Compound 3] | potent genotoxic properties | ~60% | 30 | 30–35% | –
O=C1/C(=C/c2ccccc2)C(c2ccccc2)Oc2ccccc21 (stereo not drawn) [Compound 5] | potent genotoxic properties | – | 30 | 30–35% | no statistically significant changes
